Laboratory results from patent publication US10654834B2 (Venenum Biodesign, LLC, priority 2016, dated 2020).

Key:
Type in all cases: cell-based
Mouse STC-1 cells = assay: STC-1 GLP-1 assay (GLP-1 secretion); conditions: Mouse STC-1 cells, GLP-1 secretion, 2 h; read-out: Mouse STC-1 HTRF GLP-1 Activity (EC50)
Outline: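 Secreted active GLP-1 was measured by HTRF after overnight room-temperature incubation of supernatant with the conjugates. Supernatants came from a 2 h, 37° C. compound exposure (12-point half-log series) in HBSS with DPP-IV and protease inhibitors and 0.1% fatty acid free BSA. STC-1 cells had been seeded two days earlier in stripped-serum DMEM; EC50 reported.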

mouse TGR5 receptor [1] = target: T1, mouse TGR5 receptor (Mus musculus, UniProt Q80SS6); assay: Mouse TGR5 HTRF cAMP production assay (HEK293-EBNA cells, Cisbio cAMP HiRange kit); conditions: HEK293-EBNA cells overexpressing mouse TGR5, HTRF cAMP assay
T1 construct: host or cells: HEK293-EBNA (293 c18, ATCC CRL10852)
T1 sequence (Q80SS6 1-329): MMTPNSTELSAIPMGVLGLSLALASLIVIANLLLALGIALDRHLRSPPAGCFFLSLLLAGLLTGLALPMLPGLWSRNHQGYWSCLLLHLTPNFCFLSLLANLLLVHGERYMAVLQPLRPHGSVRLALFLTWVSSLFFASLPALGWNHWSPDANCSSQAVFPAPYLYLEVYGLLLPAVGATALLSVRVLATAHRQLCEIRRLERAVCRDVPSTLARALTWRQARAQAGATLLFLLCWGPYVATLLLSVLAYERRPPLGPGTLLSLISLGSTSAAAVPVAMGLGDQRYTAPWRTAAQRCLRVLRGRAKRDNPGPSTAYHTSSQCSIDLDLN
Outline: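 cAMP accumulation was read by competitive HTRF after 1 h room-temperature compound treatment, with a further 1 h conjugate incubation. Cells were mouse TGR5-overexpressing HEK293-EBNA in serum-free DMEM plus 500 μM IBMX. Compounds ran as 12-point half-log series in duplicate, and EC50 values were reported.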

mouse TGR5 receptor [2] = target: T1, mouse TGR5 receptor; assay: Mouse TGR5 luminescent cAMP production assay (HEK293-EBNA cells, DiscoveRx cAMP XS+ kit); conditions: HEK293-EBNA cells overexpressing mouse TGR5, luminescent cAMP assay; read-out: Mouse TGR5 Lum. cAMP Activity (EC50)
Outline: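 HEK293-EBNA cells stably expressing mouse TGR5, resuspended in serum-free DMEM with 500 μM IBMX, were premixed 20 min with cAMP antibody, then exposed to half-log compound dilutions for 1 h at room temperature. cAMP was read by luminescent enzyme-fragment complementation (cAMP XS+) after overnight incubation; EC50 derived.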

| EC50 (Mouse STC-1 cells) | EC50 (mouse TGR5 receptor [1]) | EC50 (mouse TGR5 receptor [2]) | Compound |
| --- | --- | --- | --- |
| 0.1 to 0.999 µM | < 0.1 µM |  | N#Cc1ccc(CCNC(=O)[C@@H]2CCCN2c2cc(N3CCC(CCCC(=O)NCC(N)=O)CC3)nc(C(F)(F)F)n2)cc1 [Compound 68, (S)-1-(6-(4-(4-((2-amino-2-oxoethyl)amino)-4-oxobutyl)piperidin-1-yl)-2-(trifluoromethyl)pyrimidin-4-yl)-N-(4-cyanophenethyl)pyrrolidine-2-carboxamide] |
| < 0.1 µM | < 0.1 µM |  | CS(=O)(=O)NCCNC(=O)CCCC1CCN(c2cc(N3CCC[C@H]3C(=O)NCCc3ccc(C#N)cc3)nc(C(F)(F)F)n2)CC1 [Compound 93] |
| 0.1 to 0.999 µM | < 0.1 µM |  | N#Cc1ccc(CCNC(=O)[C@@H]2CCCN2c2cc(N3CCC(CCCC(=O)N[C@@H](CCCNC(=N)N)C(=O)O)CC3)nc(C(F)(F)F)n2)cc1 [Compound 72, (S)-2-(4-(1-(6-((S)-2-((4-cyanophenethyl)carbamoyl)pyrrolidin-1-yl)-2-(trifluoromethyl)pyrimidin-4-yl)piperidin-4-yl)butanamido)-5-guanidinopentanoic acid] |
| 0.1 to 0.999 µM | < 0.1 µM |  | N#Cc1ccc(CCNC(=O)[C@@H]2CCCN2c2cc(N3CCC(CCCC(=O)NCP(=O)(O)O)CC3)nc(C(F)(F)F)n2)cc1 [Compound 64, (S)-((4-(1-(6-(2-((4-cyanophenethyl)carbamoyl)pyrrolidin-1-yl)-2-(trifluoromethyl)pyrimidin-4-yl)piperidin-4-yl)butanamido)methyl)-phosphonic acid] |
| 0.1 to 0.999 µM | < 0.1 µM |  | N#Cc1ccc(CCNC(=O)[C@@H]2CCCN2c2cc(N3CCC(CCNC(=O)NCCC(=O)O)CC3)nc(C(F)(F)F)n2)cc1 [Compound 81, (S)-3-(3-(2-(1-(6-(2-((4-cyanophenethyl)carbamoyl)pyrrolidin-1-yl)-2-(trifluoromethyl)pyrimidin-4-yl)piperidin-4-yl)ethyl)ureido)-propanoic acid] |
| < 0.1 µM | < 0.1 µM |  | N#Cc1ccc(CCNC(=O)[C@@H]2CCCN2c2cc(N3CCC(CCCC(=O)NCS(=O)(=O)O)CC3)nc(C(F)(F)F)n2)cc1 [Compound 66, (S)-(4-(1-(6-(2-((4-cyanophenethyl)carbamoyl)pyrrolidin-1-yl)-2-(trifluoromethyl)pyrimidin-4-yl)piperidin-4-yl)butanamido)-methanesulfonic acid] |

The remaining lines, values behind:

| Compound | EC50 (Mouse STC-1 cells) | EC50 (mouse TGR5 receptor [1]) | EC50 (mouse TGR5 receptor [2]) |
| --- | --- | --- | --- |
| O=C(CCCC1CCN(c2cc(N3CCC[C@H]3C(=O)NCCc3ccc(C(F)(F)F)cc3)nc(C(F)(F)F)n2)CC1)NCCNc1ncnc2c1ncn2[C@@H]1O[C@H](CO)C(O)C1O (stereo partly drawn) [Compound 96, (2S)-1-(6-(4-(4-((2-((9-((2R,5R)-3,4-dihydroxy-5-(hydroxymethyl)-tetrahydrofuran-2-yl)-9H-purin-6-yl)amino)ethyl)amino)-4-oxobutyl)piperidin-1-yl)-2-(trifluoromethyl)-pyrimidin-4-yl)-N-(4-(trifluoromethyl)-phenethyl)-pyrrolidine-2-carboxamide] | < 0.1 µM | < 0.1 µM |  |
| N#Cc1ccc(CCNC(=O)[C@@H]2CCCN2c2cc(N3CCC(CCCC(=O)N[C@@H](CCC(=O)O)C(=O)O)CC3)nc(C(F)(F)F)n2)cc1 [Compound 76, (S)-2-(4-(1-(6-((S)-2-((4-cyanophenethyl)carbamoyl)pyrrolidin-1-yl)-2-(trifluoromethyl)pyrimidin-4-yl)piperidin-4-yl)butanamido)-pentanedioic acid] | 0.1 to 0.999 µM | < 0.1 µM |  |
| CS(=O)(=O)NCCNC(=O)CCCC1CCN(c2cc(N3CCC[C@H]3C(=O)NCCc3ccc(C(F)(F)F)cc3)nc(C(F)(F)F)n2)CC1 [Compound 91, (S)-1-(6-(4-(4-((2-(methylsulfonamido)ethyl)amino)-4-oxobutyl)piperidin-1-yl)-2-(trifluoromethyl)pyrimidin-4-yl)-N-(4-(trifluoromethyl)phenethyl)pyrrolidine-2-carboxamide] | < 0.1 µM | < 0.1 µM |  |
| O=C(NCCC1CCN(c2cc(N3CCC[C@H]3C(=O)NCCc3ccc(C(F)(F)F)cc3)nc(C(F)(F)F)n2)CC1)NCCS(=O)(=O)O [Compound 86, (S)-2-(3-(2-(1-(2-(trifluoromethyl)-6-(2-((4-(trifluoromethyl)phenethyl)-carbamoyl)pyrrolidin-1-yl)pyrimidin-4-yl)piperidin-4-yl)ethyl)ureido)-ethanesulfonic acid] | < 0.1 µM | < 0.1 µM |  |
| N#Cc1ccc(CCNC(=O)[C@@H]2CCCN2c2cc(N3CCC(CCNC(=O)NCCS(N)(=O)=O)CC3)nc(C(F)(F)F)n2)cc1 [Compound 80, (S)-N-(4-cyanophenethyl)-1-(6-(4-(2-(3-(2-sulfamoylethyl)ureido)-ethyl)piperidin-1-yl)-2-(trifluoromethyl)pyrimidin-4-yl)pyrrolidine-2-carboxamide] | 0.1 to 0.999 µM | < 0.1 µM |  |
| N#Cc1ccc(CCNC(=O)[C@@H]2CCCN2c2cc(N3CCC(CCNC(=O)NCCS(=O)(=O)O)CC3)nc(C(F)(F)F)n2)cc1 [Compound 78, (S)-2-(3-(2-(1-(6-(2-((4-cyanophenethyl)carbamoyl)pyrrolidin-1-yl)-2-(trifluoromethyl)pyrimidin-4-yl)piperidin-4-yl)ethyl)ureido)ethanesulfonic acid] | < 0.1 µM | < 0.1 µM |  |
| N#Cc1ccc(CCNC(=O)[C@@H]2CCCN2c2cc(N3CCC(CCCC(=O)NCCNc4cc(C(=O)O)ncn4)CC3)nc(C(F)(F)F)n2)cc1 [Compound 101, (S)-6-((2-(4-(1-(6-(2-((4-cyanophenethyl)carbamoyl)pyrrolidin-1-yl)-2-(trifluoromethyl)pyrimidin-4-yl)piperidin-4-yl)butanamido)ethyl)amino)-pyrimidine-4-carboxylic acid] | < 0.1 µM | < 0.1 µM |  |
| N#Cc1ccc(CCNC(=O)[C@@H]2CCCN2c2cc(N3CCC(COCC(=O)O)CC3)nc(C(F)(F)F)n2)cc1 [Compound 88, (S)-2-((1-(6-(2-((4-cyanophenethyl)carbamoyl)pyrrolidin-1-yl)-2-(trifluoromethyl)pyrimidin-4-yl)piperidin-4-yl)methoxy)acetic acid] | 0.1 to 0.999 µM | < 0.1 µM |  |
| N#Cc1ccc(CCNC(=O)[C@@H]2CCCN2c2cc(N3CCC(CO)CC3)nc(C(F)(F)F)n2)cc1 [Compound 1, (S)—N-(4-cyanophenethyl)-1-(6-(4-(hydroxymethyl)piperidin-1-yl)-2-(trifluoromethyl)pyrimidin-4-yl)pyrrolidine-2-carboxamide] | 0.1 to 0.999 µM |  | < 0.1 µM |
